Test results from US8445030B2 (priority 2009, dated 2013).
“Also recorded” adds a separate entry of the source. Where two headings read alike, the source gives them in different places.

Experiments:
microorganisms = experiment: Antiseptic function of components in CaF2-based formulations (Examples 2-4)
[1] = same as normal skin (pH 5.4-5.5)
[2] = cited from earlier work
Microbes = experiment: Microbial efficacy and duration of effects of components; settings: component of the spray of Example 1
[3] = component of Example 2 wound gel
[4] = component of Example 3 hair gel
[5] = component of Example 4 hand disinfection spray

With `[Ca+2].[F-].[F-]` [CaF2 (calcium fluoride), calcium fluoride] as the compound, how does the persistent antiseptic action (microorganisms; [3]) read?
The persistent antiseptic action was “log 3, persistent”.

And the persistent antiseptic action (microorganisms; [4])?
The persistent antiseptic action was “log 3, persistent”.

And the persistent antiseptic action (microorganisms; [5])?
Its persistent antiseptic action is “log 3, persistent”.

What about the pH [1] of the same compound?
The pH was 5.4.

And the “LD 50 Oral on Rats” value ([2]; oral, rats)?
The value was 4500 mg/kg.

And the “Microbial Efficacy” value (Microbes)?
Its value is “bactericide, virucide,; also recorded: fungicide”.

For `O=C(O)C=Cc1ccccc1` [Cinnamic acid], which “Duration of Effects” value (Microbes) is on record?
The value was “short to long”.

And the “Microbial Efficacy” value (Microbes)?
The value was “bactericide, virucide,; also recorded: fungicide”.

With `O=C(O)CC(O)(CC(=O)O)C(=O)O` [Citric acid] as the compound, how does the “Microbial Efficacy” value (Microbes) read?
Its value is “bactericide, virucide,; also recorded: fungicide”.

Which “fast acting antiseptic action” value (microorganisms; [3]) does the source give for `CCO` [Ethanol] here?
The value was “log 6, fast acting”.

What about the “fast acting antiseptic action” value (microorganisms; [5]) of the same compound?
Its value is “log 6, fast acting”.

With `OO` [H2O2 (hydrogen peroxide), hydrogen peroxide] as the compound, how does the “LD 50 Oral on Rats” value ([2]; rat, in vivo, po) read?
Its value is 2000 mg/kg.

And the “Duration of Effects” value (Microbes)?
Its value is “short (short = within 60 sec up to max 5 min)”.

What about the “Microbial Efficacy” value (Microbes) of the same compound?
Its value is “bactericide, virucide,; also recorded: fungicide”.

For `CC(C)O` [Isopropyl alcohol], which “fast acting antiseptic action” value (microorganisms; [4]) is on record?
The value was “log 6, fast acting”.

What does the source list for `[Na+].[O-]Cl` [NaOCl (Javel water), NaOCl]?
fast acting antiseptic action (microorganisms; [5]): log 6, fast acting; LD 50 Oral on Rats ([2]; oral, rats): 2000 mg/kg; Microbial Efficacy (Microbes): bactericide, virucide,; also recorded: fungicide

For `O=C(O)[C@]1(O)C[C@@H](O)[C@@H](O)[C@H](O)C1` [Quinic acid], which “LD 50 Oral on Rats” value ([2]; rat, in vivo, po) is on record?
The value was over 8000 mg/kg.

And the “Microbial Efficacy” value (Microbes)?
Its value is “bactericide, virucide,; also recorded: fungicide”.
